Measurements reported in patent publication US4735953A, “Pharmaceutical preparation for learning stimulation and memory improvement” (priority 1986, dated 1988).

Assays:
[1] = tested on: cerebral cortex of rabbits; assay: Asymmetry factor by induced potential in the hearing zone of the cerebral cortex; type: in vivo, rabbit
Protocol: In the third series of experiments the effect of the preparation according to the present invention on the functional brain asymmetry was studied. The experiments were carried out on rabbits with electrodes implanted in the brain. The electrodes under nembutal narcosis (40 mg/kg) were implanted strictly symmetrically into the bearing zone of the temporal cortex of the right and left hemispheres on its lateral surface, whereas the indifferent electrode was secured to the nasal bones of a rabbit's skull. The acoustic irritation was applied through earphones. As the acoustic irritation a sound click caused by a square-shaped pulse from an electronic stimulator with a frequency of 0.1-0.2 Hz was used; the click intensity was adjusted within the range of from 5 to 80 Db. The amplification of the taken-off biopotentials was effected on an electroencephalograph; the induced potentials were obtained by means of an analyzer. 100 experiments on 20 animals were thus conducted; the interval between experiments on one animal was 7 days. The amplitude and form of the induced potential were determined. The asymmetry factor (Kas) was calculated by the formula: [formula] Ar --amplitude of the induced potential of the […] hemisphere, μV;
A1 --amplitude of the induced potential of the left hemisphere.
The test preparations were administered hypodermally in the form of 0.5-1.5% aqueous solutions 20 minutes before the beginning of the measurements.

[2] = tested on: learning ability of rats in a shuttle chamber; assay: Active avoidance learning in a shuttle chamber, rats; type: in vivo, rat; conditions: rats, hypodermally 0.04 mg/kg
Excerpt: (§1) In these experiments rats are taught to avoid an electric shock by escaping into a next chamber communicating with the first chamber by means of a special opening--a door. An electric current is applied to the chamber door consisting of metal plates. A conditional irritator is a light signal together with a sound click. The learning series consisted of 50 combinations. The number of combinations necessary for the animal's learning to escape into another chamber in response to the conditional signal was determined. Five correct responses out of 6 where regarded as the proof of stability of the acquired knowledge and were denoted as a "learning criterion". After 7 days the educational procedure was repeated, and again the number of combinations necessary to acquire the "learning criterion" was determined. In the case of difference between the first and second readings the percentage of retention of the acquired knowledge was calculated.
(§2) In this experiment the effect of the preparation according to the present invention and prior art preparations was separately evaluated for the purpose of comparison on well-learning and on specially selected poorly learning rats. […] To the poorly learning rats the animals were assigned which reached no "learning criterion" in the teaching series of 50 combinations, or, in other words, a stable knowledge of active avoidance was not worked out in them. […] The preparation according to the present invention and the prior art comparison preparations were administered before the first teaching series or thereafter.
(§3) Also studied were the effects produced upon a single and repeated administration of the preparation according to the present invention for 14 days.

[3] = tested on: learning ability of mice in a shuttle chamber; assay: Learning ability of mice in a shuttle chamber; type: in vivo, mouse; conditions: mice
[4] = tested on: learning ability of rats preliminarily sorted out for poor learning ability; assay: Active avoidance learning in a shuttle chamber, rats sorted out for poor learning ability; type: in vivo, rat; conditions: poorly learning rats, hypodermally 0.04 mg/kg
Excerpt: as §1, §2, §3

[5] = hypodermally 0.03 mg/kg, 1st day
[6] = hypodermally 0.03 mg/kg, 12 day (retention)
[7] = hypodermally 0.1 mg/kg, 1st day
[8] = hypodermally 0.1 mg/kg, 12 day (retention)

## COc1ccc2c3c1O[C@H]1C[C@@H](O)C=C[C@@]31CCN(C)C2 [Galantamine]
[1]; hypodermally 3 mg/kg, control 0.26 ± 0.03
  Asymmetry factor, Preparation: 0.19 ± 0.03

## CNC(=O)Oc1ccc2c(c1)[C@]1(C)CCN(C)[C@@H]1N2C [Physostigmine, physostigmine]
[1]
  asymmetry factor (in words): did not change or reduced the factor of asymmetry
[1]; hypodermally 0.04 mg/kg, control 0.22 ± 0.01
  Asymmetry factor, Preparation: 0.11 ± 0.01
[2]
  Number of combinations to reach the "learning criterion" in II teaching series (after 7 days): 6.1 ± 0.9
  Number of combinations to reach the "learning criterion" in the I teaching series: 21.9 ± 2.5
  Number of non-taught animals in the group: 1/20
  Percentage knowledge retention: 72%
[3]; 0.03 mg/kg
  teaching of animals (in words): slightly improves
[3]; 0.1 mg/kg
  teaching of animals (in words): impairs teaching of animals
[3]; [5]
  % of avoidance reactions, group I: 20%
  % of avoidance reactions, group II: 21%
  % of avoidance reactions, group III: 26%
  % of avoidance reactions, group IV: 35%
  % of avoidance reactions, group V: 49%
  % of avoidance reactions, group VI: 57%
[3]; [6]
  % of avoidance reactions, group I: 50%
  % of avoidance reactions, group II: 80%
  % of avoidance reactions, group III: 83%
  % of avoidance reactions, group IV: 87%
  % of avoidance reactions, group V: 90%
  % of avoidance reactions, group VI: 89%
[3]; [7]
  % of avoidance reactions, group I: 18%
  % of avoidance reactions, group II: 4%
  % of avoidance reactions, group III: 7%
  % of avoidance reactions, group IV: 18%
  % of avoidance reactions, group V: 23%
  % of avoidance reactions, group VI: 38%
[3]; [8]
  % of avoidance reactions, group I: 39%
  % of avoidance reactions, group II: 60%
  % of avoidance reactions, group III: 70%
  % of avoidance reactions, group IV: 70%
  % of avoidance reactions, group V: 71%
  % of avoidance reactions, group VI: 70%
[4]
  % of knowledge retention: 10%
  Number of combinations till appearance of "learning criterion", I teaching: 46 ± 3.1
  Number of combinations till appearance of "learning criterion", II-checking of retention of knowledge: 31.4 ± 1.8
  Number of untaught animals in the group: 12/20
